Laboratory results published in PMC8911944, “Screening of Natural Products Inhibitors of SARS-CoV-2 Entry” (Molecules, 2022).

tested on: pseudotyped HIV-1 with the D614G SARS-CoV-2 spike glycoprotein; assay type: cell-based

| Compound | Antiviral Activity (% of Inhibition) [%] | IC50 (50% inhibitory concentration) |
| --- | --- | --- |
| CC1=C[C@H](O)[C@H]2C[C@@H]1C2(C)C (relative stereo) [cis-Verbenol] | −171.26 ± 32.54 | – |
| C/C=C/[C@H]1OC(=O)C=C[C@H]1OC(C)=O [Acetylphomolactone] | −0.65 ± 6.16 | – |
| CC(=O)OC1C=CC(=O)OC1C1OC1C (stereo not drawn) [Asperline] | −15.48 ± 8.34 | – |
| CC(=O)C1COC(O)C1C (stereo not drawn) [Botryodiplodin] | −88.21 ± 12.51 | – |
| C=C1CC[C@H]2O[C@]2(C)CC[C@@H]2[C@@H]1CC2(C)C [Caryophyllene Oxide] | 43.82 ± 6.31 | – |
| C[C@H]1CC[C@@H](C(C)(C)O)CC2=C1CC[C@@H]2C [Guaiol] | −60.20 ± 8.02 | – |
| CC(O)[C@@H]1NC(=O)c2cccn2C1=O (stereo partly drawn) [Macrophominol] | −91.39 ± 26.65 | – |
| C=C(C)[C@H]1CC=C(C)CC1 [R-Limonene] | −27.90 ± 16.41 | – |
| C/C=C/c1ccc(OC)cc1 [Trans-anethole] | 5.02 ± 0.71 | – |
| C=C1CC/C=C(\C)CC[C@@H]2[C@@H]1CC2(C)C [β-Caryophyllene] | – | 98.5 |
| Isoasperline | −19.82 ± 10.21 | – |
| S-Limonene | −62.63 ± 22.17 | – |
